According to publication PMC8557901 (Microbiology Spectrum, 2021):

Tests used:
[1] = system: P. falciparum F32-ART5 (artemisinin-resistant); test: Standard in vitro chemosensitivity assay (hypoxanthine uptake), F32-ART5; format: cell-based; conditions: Plasmodium falciparum, F32, 48 h, read-out: Mean EC50 ± SD
Experimental: (§1) The Plasmodium falciparum artemisinin-resistant strain F32-ART5 and its twin artemisinin-sensitive line F32-TEM ([30], [31]) were cultivated at 37°C with 5% CO2 in human red blood cells (EFS [French Blood Bank]) diluted to 2% hematocrit in RPMI 1640 medium supplemented with 5% human serum (EFS) as previously reported ([47]).
(§2) In vitro susceptibility of P. falciparum parasites was determined by using the standard hypoxanthine uptake inhibition assay as described previously ([51]) with some modifications ([52]). After D-sorbitol treatment, parasites synchronized at the ring stage were exposed for 48 h, with [^3H]hypoxanthine (Perkin Elmer, France), to a range of concentrations of the different tested compounds. […] Each result represents 3 independent experiments.

[2] = system: P. falciparum F32-ART5 and F32-TEM; test: Recrudescence assay F32-ART5 versus F32-TEM; format: cell-based, Plasmodium falciparum; conditions: 48 h drug exposure; M1 2.5 and 10 μM; artemisinin 18 μM
Experimental: as §1
A recrudescence assay was performed to evaluate the ability of the F32-ART5 parasite line to survive drug exposure in comparison to that of the F32-TEM parasite line ([30], [31]) in order to evaluate the risk of cross-resistance between artemisinin and M1. D-Sorbitol-synchronized ring-stage parasites at 3% parasitemia (2% hematocrit) were exposed to the drug for 48 h. After drug exposure, parasite cultures were washed with RPMI 1640 medium and replaced in normal drug-free culture conditions. The time to parasite recrudescence was determined as the time required to reach initial parasitemia. […] Each experiment, performed in parallel for F32-ART5 and F32-TEM cultivated under the same conditions to generate paired results, was carried out at least three times independently and data statistically analyzed.
A statistical analysis (log-rank test) was carried out on data from the recrudescence assay and the QSA using a Kaplan-Meier survival analysis considering censored data. The final event was defined as the time necessary for cultures to reach initial parasitemia. […]

[3] = system: P. falciparum F32-TEM (artemisinin-sensitive); test: Standard in vitro chemosensitivity assay (hypoxanthine uptake), F32-TEM; format: cell-based; conditions: Plasmodium falciparum, F32, 48 h, read-out: Mean EC50 ± SD
Experimental: as §1, §2

[4] = system: P. falciparum strain K1 in RBC; test: In vitro chemosensitivity assay, blood stage P. falciparum K1 (SYBR green I); format: cell-based; conditions: Plasmodium falciparum, K1, 72 h, read-out: EC50 (μM) for P. falciparum strain K1 in RBC
Experimental: Maintenance in continuous culture was done as described previously by Trager and Jensen ([46]). Cultures were maintained in fresh A+ human erythrocytes (EFS [French Blood Bank]) at 2.5% hematocrit in complete medium (RPMI 1640 with 25 mM HEPES, 25 mM NaHCO3, 10% A+ human serum) at 37°C under a reduced-O2 atmosphere (gas mixture of 10% O2, 5% CO2, and 85% N2). Parasitemia was maintained daily between 1% and 3%. The P. falciparum drug susceptibility test was carried out by comparing quantities of DNA in treated and control cultures of parasites in human erythrocytes according to a SYBR green I fluorescence-based method ([50]) using a 96-well fluorescence plate reader. Compounds, previously dissolved in DMSO (final concentration, less than 0.5% vol/vol), were incubated in a total assay volume of 200 μl of synchronized culture suspension (2% hematocrit and 0.4% parasitemia) for 72 h in a humidified atmosphere (85% N2, 10% O2, and 5% CO2) at 37°C in 96-well flat-bottom plates. Duplicate assays were performed for each sample. After incubation, plates were frozen at −20°C for 24 h. Then, the frozen plates were thawed for 1 h at 37°C. Fifteen microliters of each sample was transferred to 96-well flat-bottom black plates (Greiner Bio-one) already containing 15 μl of the SYBR green I lysis buffer (2× SYBR green I, 20 mM Tris base, pH 7.5, 20 mM EDTA, 0.008% [wt/vol] saponin, 0.08% [wt/vol] Triton X-100). […] Plates were incubated for 15 min at 37°C and then read on a Tecan Infinite F-200 spectrophotometer with excitation and emission wavelengths at 485 and 535 nm, respectively. […] EC50K1 values represent the mean values calculated from three independent experiments.

[5] = system: P. falciparum F32-ART5 quiescent parasites; test: Quiescent-stage survival assay (QSA); format: cell-based, Plasmodium falciparum; conditions: artemisinin 3 μM 6 h then artemisinin + CQ 200 nM versus artemisinin alone
Experimental: as §1
Chemosensitivity evaluation of artemisinin-resistant parasites at the quiescent stage was performed on the F32-ART5 strain using the quiescent-stage survival assay (QSA) ([33]). D-Sorbitol-synchronized ring-stage parasites at 3% parasitemia (2% hematocrit) were first exposed to 3 μM artemisinin for 6 h to induce quiescence of artemisinin-resistant parasites. Then, quiescent parasites were exposed or not (as a control condition) to 2.5 μM M1 for 24 h. After drug exposure, parasite cultures were washed with RPMI 1640 medium and replaced in normal drug-free culture conditions. The time to parasite recrudescence was determined as the time required to reach initial parasitemia. […] In each experiment, results obtained with the condition “artemisinin 3 μM 6 h/artemisinin 3 μM 24 h” were compared to those obtained with the condition “artemisinin 3 μM 6 h/(artemisinin 3 μM + M1 2.5 μM) 24 h” in order to determine the delay in recrudescence time. […] Each experiment was carried out three times independently, and data statistically analyzed. […]

[6] = system: Plasmodium berghei; parameters: method as in PMID 25791675; conditions: 2.5 mg/kg twice a day for 3 days; untreated group 9%; cited from earlier work

Compound	EC50 [1] [nM]	recrudescence of F32-ART5 versus F32-TEM (cross-resistance with artemisinin) [2]	EC50 [3] [nM]	EC50 [4] [µM]	difference in recrudescence times versus artemisinin alone [5]	parasitemia at day 4 [6] [%]
C[C@@H]1CC[C@H]2[C@@H](C)C(=O)O[C@@H]3O[C@@]4(C)CC[C@@H]1[C@]32OO4 [Artemisinin, reference compound]	11 ± 0.5	faster recrudescence for F32-ART5 than for F32-TEM	11.1 ± 1.6	–	–	–
CCN(CC)CCCC(C)Nc1ccnc2cc(Cl)ccc12 (stereo not drawn) [Chloroquine, reference compound]	–	–	–	0.8	no difference in the recrudescence times	1.5
